The values below come from ChEMBL document CHEMBL1649182, “Binding of faropenem and other beta-lactam agents to penicillin-binding proteins of pneumococci with various beta-lactam susceptibilities” (Antimicrob Agents Chemother, 2009).

The IC50 is the point on the concentration scale where inhibition reaches its midpoint. As a reminder, the MIC90 is an inhibitory concentration at the 90% level, which refers to growth in some studies and to a panel of isolates in others. The low end stands for higher susceptibility, the high end for lower susceptibility.

Assay [1] has as its target T1, Penicillin-binding protein 1A (Streptococcus pneumoniae serotype 4 (strain ATCC BAA-334 / TIGR4), UniProt Q04707).
T1 sequence (Q04707 whole entry): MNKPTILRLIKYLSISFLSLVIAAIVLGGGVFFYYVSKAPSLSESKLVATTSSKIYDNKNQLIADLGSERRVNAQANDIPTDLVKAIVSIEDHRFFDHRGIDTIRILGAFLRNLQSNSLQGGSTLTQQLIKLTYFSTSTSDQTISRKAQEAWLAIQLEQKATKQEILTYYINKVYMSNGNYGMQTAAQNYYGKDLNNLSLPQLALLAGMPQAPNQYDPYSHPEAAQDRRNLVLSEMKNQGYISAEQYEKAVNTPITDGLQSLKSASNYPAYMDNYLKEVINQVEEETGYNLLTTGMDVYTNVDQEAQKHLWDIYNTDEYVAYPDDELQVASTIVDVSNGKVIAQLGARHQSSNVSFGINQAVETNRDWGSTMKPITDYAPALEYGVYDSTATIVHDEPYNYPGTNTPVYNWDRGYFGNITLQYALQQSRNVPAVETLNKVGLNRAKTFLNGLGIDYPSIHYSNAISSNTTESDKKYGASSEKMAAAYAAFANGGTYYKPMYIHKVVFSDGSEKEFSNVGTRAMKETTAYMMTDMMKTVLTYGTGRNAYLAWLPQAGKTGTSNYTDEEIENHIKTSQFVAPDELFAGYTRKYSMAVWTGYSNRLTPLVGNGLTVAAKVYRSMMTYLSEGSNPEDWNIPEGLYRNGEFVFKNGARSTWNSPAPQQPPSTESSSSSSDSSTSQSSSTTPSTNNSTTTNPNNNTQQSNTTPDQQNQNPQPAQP
Put plainly: Displacement of Biocillin FL from Streptococcus pneumoniae 3413 PBP1A.

A further assay deals with Streptococcus pneumoniae. Briefly: Antimicrobial activity against Streptococcus pneumoniae serotype 19A. The class given is functional.

In brackets after ≈: the same amount, converted by molar mass.

With `CC1(C)S[C@@H]2[C@H](NC(=O)[C@H](N)c3ccc(O)cc3)C(=O)N2[C@H]1C(=O)O` [AMOXICILLIN], in assay [1], the half-inhibitory concentration (IC50) was 339 nM.

The molecule `CO/N=C(\C(=O)N[C@@H]1C(=O)N2C(C(=O)O)=C(COC(N)=O)CS[C@H]12)c1ccco1` [CEFUROXIME] gave an IC50 in assay [1] of 2.36 nM. This IC50 lies about 140-fold lower than the previous one.

`C[C@@H](O)[C@H]1C(=O)N2C(C(=O)O)=C([C@H]3CCCO3)S[C@H]12` [FAROPENEM] showed an IC50 in assay [1] of 56.1 nM. Moreover, the MIC90 in the assay on Streptococcus pneumoniae is 1 µg/mL (≈ 3.5 µM).

With `C[C@@H](O)[C@H]1C(=O)N2C(C(=O)O)=C(SCCNC=N)C[C@H]12` [IMIPENEM ANHYDROUS], in assay [1], the IC50 is 2070 nM.

The molecule `CC1(C)S[C@@H]2[C@H](NC(=O)Cc3ccccc3)C(=O)N2[C@H]1C(=O)O` [PENICILLIN G] gave an IC50 in assay [1] of 59.8 nM. This IC50 lies about 35-fold lower than the previous one.
